Test results reported in patent publication US10597388B2, “Pyridazinone herbicides” (FMC CORPORATION, priority 2014, dated 2020).

Key:
Type in all cases: in vivo
[1] = tested on: barnyardgrass (Echinochloa crus-galli); experiment: Test A greenhouse herbicide test, pre- and postemergence
How it was run: (§1)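 Seeds sown in loam–sand blend got a preemergence directed soil spray of compound in non-phytotoxic solvent with surfactant. Postemergence treatment was given at 2–10 cm, one- to two-leaf stage. After ~10 d in greenhouse, injury was rated visually vs untreated controls, 0 (no effect) to 100 (complete control).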

corn (Zea mays) = experiment: as above; settings: Postemergence; for Plant response rating, Corn: 125 g ai/ha, 0 to 100 scale where 0 is no effect and 100 is complete control; for Corn plant response rating: 500 g ai/ha, 0 to 100 scale, 0 is no effect, 100 is complete control
How it was run: as §1

[2] = tested on: foxtail, giant (giant foxtail, Setaria faberii); experiment: as above
How it was run: as §1

kochia (Kochia scoparia) = experiment: as above
How it was run: as §1

[3] = tested on: pigweed (Amaranthus retroflexus); experiment: as above
How it was run: as §1

[4] = tested on: ragweed (common ragweed, Ambrosia elatior); experiment: as above
How it was run: as §1

[5] = tested on: ryegrass, Italian (Italian ryegrass, Lolium multiflorum); experiment: as above
How it was run: as §1

[6] = tested on: wheat (Triticum aestivum); experiment: as above; settings: Postemergence; for Plant response rating, Wheat: 125 g ai/ha, 0 to 100 scale where 0 is no effect and 100 is complete control; for Wheat plant response rating: 500 g ai/ha, 0 to 100 scale, 0 is no effect, 100 is complete control
How it was run: as §1

[7] = tested on: lambsquarters (Chenopodium album); experiment: Test C greenhouse herbicide test, pre- and postemergence
How it was run: (§2)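 Each species was treated both before emergence, in a loam–sand soil mix, and after emergence, as 1- to 4-leaf seedlings in peat-based potting medium. Plants stayed in the greenhouse 13 to 15 d, then were scored from 0 (no effect) to 100 (complete control) relative to controls.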

[8] = tested on: nutsedge, yellow (yellow nutsedge, Cyperus esculentus); experiment: as above
How it was run: as §2

[9] = tested on: ryegrass, Italian (Italian ryegrass, Lolium multiflorum); experiment: as above
How it was run: as §2

[10] = Postemergence, 125 g ai/ha, 0 to 100 scale where 0 is no effect and 100 is complete control
[11] = Postemergence, 500 g ai/ha, 0 to 100 scale, 0 is no effect, 100 is complete control
[12] = Preemergence, 125 g ai/ha, 0 to 100 scale where 0 is no effect and 100 is complete control
[13] = Preemergence, 500 g ai/ha, 0 to 100 scale, 0 no effect, 100 complete control
[14] = Postemergence, 31 g ai/ha, 0 to 100 scale (0 no effect, 100 complete control)
[15] = Postemergence, 125 g ai/ha, scale 0 to 100, 0 is no effect, 100 is complete control
[16] = Postemergence, 250 g ai/ha, scale 0 to 100, 0 no effect, 100 complete control, 13 to 15 d
[17] = Preemergence, 31 g ai/ha, scale 0 to 100, 0 is no effect, 100 is complete control
[18] = Preemergence, 62 g ai/ha, scale 0 to 100, 0 is no effect, 100 is complete control
[19] = Preemergence, 125 g ai/ha, scale 0 to 100, 0 is no effect, 100 is complete control
[20] = Preemergence, 250 g ai/ha, scale 0 to 100 (0 no effect, 100 complete control)
[21] = postemergence, 62 g ai/ha, scale 0 to 100, 0 no effect, 100 complete control

## CCC(=O)Oc1c(C)nn(C)c(=O)c1-c1c(C)sc2ccc(C)cc12 [Compound 42]
[1]; [10]
  Plant response rating, Barnyardgrass: 30
[1]; [11]
  Barnyardgrass plant response rating: 90
[1]; [12]
  Barnyardgrass plant response rating: 80
[1]; [13]
  Plant response rating, Barnyardgrass: 100
Corn (Zea mays)
  Plant response rating, Corn: 0
  Corn plant response rating: 20
[2]; [10]
  Plant response rating, Foxtail, Giant: 90
[2]; [11]
  Foxtail, Giant plant response rating: 100
[2]; [12]
  Foxtail, Giant plant response rating: 80
[2]; [13]
  Plant response rating, Foxtail, Giant: 100
Kochia (Kochia scoparia); [10]
  Plant response rating, Kochia: 100
Kochia (Kochia scoparia); [11]
  Kochia plant response rating: 100
Kochia (Kochia scoparia); [12]
  Kochia plant response rating: 80
Kochia (Kochia scoparia); [13]
  Plant response rating, Kochia: 100
[3]; [10]
  Plant response rating, Pigweed: 90
[3]; [11]
  Pigweed plant response rating: 100
[3]; [12]
  Pigweed plant response rating: 100
[3]; [13]
  Plant response rating, Pigweed: 100
[4]; [10]
  Plant response rating, Ragweed: 100
[4]; [11]
  Ragweed plant response rating: 100
[4]; [12]
  Ragweed plant response rating: 90
[4]; [13]
  Plant response rating, Ragweed: 100
[5]; [10]
  Plant response rating, Ryegrass, Italian: 100
[5]; [11]
  Ryegrass, Italian plant response rating: 100
[5]; [12]
  Ryegrass, Italian plant response rating: 100
[5]; [13]
  Plant response rating, Ryegrass, Italian: 100
[6]
  Plant response rating, Wheat: 0
  Wheat plant response rating: 20
[7]; [14]
  Lambsquarters plant response rating: 85
[7]; [15]
  Plant response rating, Lambsquarters: 100
[7]; [16]
  Plant response rating, Lambsquarters: 98
[7]; [17]
  Plant response rating, Lambsquarters: 85
[7]; [18]
  Plant response rating, Lambsquarters: 80
[7]; [19]
  Plant response rating, Lambsquarters: 85
[7]; [20]
  Lambsquarters plant response rating: 90
[7]; [21]
  Lambsquarters plant response rating: 95
[8]; [14]
  Nutsedge, Yellow plant response rating: 65
[8]; [16]
  Plant response rating, Nutsedge, Yellow: 95
[8]; [17]
  Plant response rating, Nutsedge, Yellow: 55
[8]; [18]
  Plant response rating, Nutsedge, Yellow: 60
[8]; [19]
  Plant response rating, Nutsedge, Yellow: 40
[8]; [20]
  Nutsedge, Yellow plant response rating: 80
[8]; [21]
  Nutsedge, Yellow plant response rating: 75
[9]; [14]
  Ryegrass, Italian plant response rating: 65
[9]; [15]
  Plant response rating, Ryegrass, Italian: 90
[9]; [16]
  Plant response rating, Ryegrass, Italian: 95
[9]; [17]
  Plant response rating, Ryegrass, Italian: 85
[9]; [18]
  Plant response rating, Ryegrass, Italian: 90
[9]; [19]
  Plant response rating, Ryegrass, Italian: 90
[9]; [20]
  Ryegrass, Italian plant response rating: 90
[9]; [21]
  Ryegrass, Italian plant response rating: 90

## Cc1cc(C)c2ccccc2c1-c1c(O)cnn(C)c1=O [Compound 51]
[1]; [10]
  Plant response rating, Barnyardgrass: 20
[1]; [11]
  Barnyardgrass plant response rating: 80
[1]; [12]
  Barnyardgrass plant response rating: 30
[1]; [13]
  Plant response rating, Barnyardgrass: 90
Corn (Zea mays)
  Plant response rating, Corn: 0
  Corn plant response rating: 0
[2]; [10]
  Plant response rating, Foxtail, Giant: 50
[2]; [11]
  Foxtail, Giant plant response rating: 80
[2]; [12]
  Foxtail, Giant plant response rating: 50
[2]; [13]
  Plant response rating, Foxtail, Giant: 90
Kochia (Kochia scoparia); [10]
  Plant response rating, Kochia: 70
Kochia (Kochia scoparia); [11]
  Kochia plant response rating: 90
Kochia (Kochia scoparia); [12]
  Kochia plant response rating: 0
Kochia (Kochia scoparia); [13]
  Plant response rating, Kochia: 30
[3]; [10]
  Plant response rating, Pigweed: 70
[3]; [11]
  Pigweed plant response rating: 90
[3]; [12]
  Pigweed plant response rating: 70
[3]; [13]
  Plant response rating, Pigweed: 100
[4]; [10]
  Plant response rating, Ragweed: 70
[4]; [11]
  Ragweed plant response rating: 70
[4]; [12]
  Ragweed plant response rating: 30
[4]; [13]
  Plant response rating, Ragweed: 80
[5]; [10]
  Plant response rating, Ryegrass, Italian: 60
[5]; [11]
  Ryegrass, Italian plant response rating: 90
[5]; [12]
  Ryegrass, Italian plant response rating: 50
[5]; [13]
  Plant response rating, Ryegrass, Italian: 90
[6]
  Plant response rating, Wheat: 0
  Wheat plant response rating: 0
[7]; [14]
  Lambsquarters plant response rating: 5
[7]; [15]
  Plant response rating, Lambsquarters: 65
[7]; [21]
  Lambsquarters plant response rating: 50
[8]; [14]
  Nutsedge, Yellow plant response rating: 35
[8]; [15]
  Plant response rating, Nutsedge, Yellow: 85
[8]; [16]
  Plant response rating, Nutsedge, Yellow: 90
[8]; [21]
  Nutsedge, Yellow plant response rating: 70
[9]; [14]
  Ryegrass, Italian plant response rating: 35
[9]; [15]
  Plant response rating, Ryegrass, Italian: 60
[9]; [16]
  Plant response rating, Ryegrass, Italian: 70
[9]; [21]
  Ryegrass, Italian plant response rating: 50

## Cc1ccc(-c2c(O)c(Br)nn(C)c2=O)c2ccccc12 [Compound 52]
[1]; [10]
  Plant response rating, Barnyardgrass: 10
[1]; [11]
  Barnyardgrass plant response rating: 50
[1]; [12]
  Barnyardgrass plant response rating: 50
[1]; [13]
  Plant response rating, Barnyardgrass: 70
Corn (Zea mays)
  Plant response rating, Corn: 0
  Corn plant response rating: 20
[2]; [10]
  Plant response rating, Foxtail, Giant: 40
[2]; [11]
  Foxtail, Giant plant response rating: 50
[2]; [12]
  Foxtail, Giant plant response rating: 40
[2]; [13]
  Plant response rating, Foxtail, Giant: 60
Kochia (Kochia scoparia); [10]
  Plant response rating, Kochia: 40
Kochia (Kochia scoparia); [11]
  Kochia plant response rating: 100
Kochia (Kochia scoparia); [12]
  Kochia plant response rating: 0
Kochia (Kochia scoparia); [13]
  Plant response rating, Kochia: 80
[3]; [10]
  Plant response rating, Pigweed: 10
[3]; [11]
  Pigweed plant response rating: 30
[3]; [12]
  Pigweed plant response rating: 10
[3]; [13]
  Plant response rating, Pigweed: 60
[4]; [10]
  Plant response rating, Ragweed: 90
[4]; [11]
  Ragweed plant response rating: 100
[4]; [12]
  Ragweed plant response rating: 20
[4]; [13]
  Plant response rating, Ragweed: 80
[5]; [10]
  Plant response rating, Ryegrass, Italian: 70
[5]; [11]
  Ryegrass, Italian plant response rating: 80
[5]; [12]
  Ryegrass, Italian plant response rating: 80
[5]; [13]
  Plant response rating, Ryegrass, Italian: 80
[6]
  Plant response rating, Wheat: 0
  Wheat plant response rating: 0
[7]; [14]
  Lambsquarters plant response rating: 55
[7]; [15]
  Plant response rating, Lambsquarters: 75
[7]; [16]
  Plant response rating, Lambsquarters: 98
[7]; [21]
  Lambsquarters plant response rating: 60
[8]; [14]
  Nutsedge, Yellow plant response rating: 60
[8]; [15]
  Plant response rating, Nutsedge, Yellow: 90
[8]; [16]
  Plant response rating, Nutsedge, Yellow: 95
[8]; [21]
  Nutsedge, Yellow plant response rating: 80
[9]; [14]
  Ryegrass, Italian plant response rating: 10
[9]; [15]
  Plant response rating, Ryegrass, Italian: 45
[9]; [16]
  Plant response rating, Ryegrass, Italian: 60
[9]; [21]
  Ryegrass, Italian plant response rating: 40
